Assays:
soybean = test: Test C postemergence; type: in vivo, Glycine max
Outline: (§1)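 Surfactant-containing, non-phytotoxic solvent formulations of each compound were applied either preemergence to seeds in a loam soil–sand blend or postemergence to plants 2 to 18 cm tall (1- to 4-leaf stage). Postemergence plants were grown in peat moss–vermiculite medium.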

corn = test: Test C postemergence; type: in vivo, Zea mays
Outline: as §1

galium = test: Test C postemergence; type: in vivo, Galium aparine
Outline: as §1

barnyardgrass = test: Test C postemergence; type: in vivo, Echinochloa crus-galli
Outline: as §1

waterhemp = test: Test C preemergence; type: in vivo, Amaranthus rudis; details: for Waterhemp plant response rating (0 to 100): Preemergence, visual rating after 13 to 15 d
Description: Seeds of plant species selected from blackgrass (Alopecurus myosuroides), ryegrass, Italian (Italian ryegrass, Lolium multiflorum), wheat (winter wheat, Triticum aestivum), galium (catchweed bedstraw, Galium aparine), corn (Zea mays), crabgrass, large (large crabgrass, Digitaria sanguinalis), foxtail, giant, (giant foxtail, Setaria faberii), johnsongrass (Sorghum halepense), lambsquarters (Chenopodium album), morningglory (Ipomoea coccinea), nutsedge, yellow (yellow nutsedge, Cyperus esculentus), pigweed (Amaranthus retroflexus), ragweed (common ragweed, Ambrosia elatior), soybean (Glycine max), barnyardgrass (Echinochloa crus-galli), oilseed rape (Brassica napus), waterhemp (common waterhemp, Amaranthus rudis), and velvetleaf (Abutilon theophrasti) were planted into a blend of loam soil and sand and treated preemergence with test chemicals formulated in a non-phytotoxic solvent mixture which included a surfactant. At the same time, plants selected from these crop and weed species and also chickweed (common chickweed, Stellaria media), oat, wild (wild oat, Avena fatua), and kochia (Kochia scoparia), were planted in pots containing Sunshine Redi-Earth® planting medium comprising spaghnum peat moss, vermiculite, starter nutrients and dolomitic limestone and treated with postemergence applications of test chemicals formulated in the same manner. Plants ranged in height from 2 to 18 cm (1- to 4-leaf stage) for postemergence treatments. […] A dash (-) response means no test result.

pigweed [1] = test: Test A preemergence; type: in vivo, Amaranthus retroflexus; details: Amaranthus retroflexus, pre-emergence, 240 h, 0 to 100 scale (0 no effect, 100 complete control), read-out: Plant response rating, Pigweed
Outline: (§2)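 Test chemicals in a non-phytotoxic solvent with surfactant were applied as a directed soil spray preemergence to seeds sown in loam/sand. Postemergence sprays went to plants 2–10 cm tall at the one- to two-leaf stage. A dash means no result.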

foxtail, giant [2] = test: Test A preemergence; type: in vivo, Setaria faberii; details: Setaria faberi, pre-emergence, 240 h, 0 to 100 scale (0 no effect, 100 complete control), read-out: Plant response rating, Foxtail, Giant
Outline: as §2

johnsongrass = test: Test C postemergence; type: in vivo, Sorghum halepense
Outline: as §1

crabgrass, large = test: Test C postemergence; type: in vivo, Digitaria sanguinalis
Outline: as §1

foxtail, giant [3] = test: Test A postemergence; type: in vivo, Setaria faberii; details: Setaria faberi, post-emergence, 240 h, 0 to 100 scale (0 no effect, 100 complete control), approx. 10 d, read-out: Plant response rating, Foxtail, Giant
Outline: as §2

pigweed [4] = test: Test A postemergence; type: in vivo, Amaranthus retroflexus; details: Amaranthus retroflexus, post-emergence, 240 h, 0 to 100 scale (0 no effect, 100 complete control), approx. 10 d, read-out: Plant response rating, Pigweed
Outline: as §2

velvetleaf = test: Test C postemergence; type: in vivo, Abutilon theophrasti
Outline: as §1

ragweed = test: Test C postemergence; type: in vivo, Ambrosia elatior
Outline: as §1

CCOc1nc(-c2ccc(C(F)(F)F)cc2)nn1Cc1ccnc(C(F)(F)F)c1 [Compound 35, 4-[[5-ethoxy-3-[4-(trifluoromethyl)phenyl]-1H-1,2,4-triazole-1-yl]methyl]-2-(trifluoromethyl)pyridine]
Plant response rating (scale of 0 to 100 where 0 is no effect and 100 is complete control) (soybean; 31 g ai/ha): 55 | Plant response rating (scale of 0 to 100 where 0 is no effect and 100 is complete control) (soybean; 62 g ai/ha): 65 | Plant response rating (scale of 0 to 100 where 0 is no effect and 100 is complete control) (soybean; 125 g ai/ha): 65 | Plant response rating (scale of 0 to 100 where 0 is no effect and 100 is complete control) (soybean; 250 g ai/ha): 70 | Plant response rating (scale of 0 to 100 where 0 is no effect and 100 is complete control) (corn; 31 g ai/ha): 25 | Plant response rating (scale of 0 to 100 where 0 is no effect and 100 is complete control) (corn; 62 g ai/ha): 20 | Plant response rating (scale of 0 to 100 where 0 is no effect and 100 is complete control) (corn; 125 g ai/ha): 25 | Plant response rating (scale of 0 to 100 where 0 is no effect and 100 is complete control) (corn; 250 g ai/ha): 50 | Plant response rating (scale of 0 to 100 where 0 is no effect and 100 is complete control) (galium; 31 g ai/ha): 80 | Plant response rating (scale of 0 to 100 where 0 is no effect and 100 is complete control) (galium; 62 g ai/ha): 80 | Plant response rating (scale of 0 to 100 where 0 is no effect and 100 is complete control) (galium; 125 g ai/ha): 90 | Plant response rating (scale of 0 to 100 where 0 is no effect and 100 is complete control) (galium; 250 g ai/ha): 90 | Plant response rating (scale of 0 to 100 where 0 is no effect and 100 is complete control) (barnyardgrass; 31 g ai/ha): 30 | Plant response rating (scale of 0 to 100 where 0 is no effect and 100 is complete control) (barnyardgrass; 62 g ai/ha): 45 | Plant response rating (scale of 0 to 100 where 0 is no effect and 100 is complete control) (barnyardgrass; 125 g ai/ha): 60 | Plant response rating (scale of 0 to 100 where 0 is no effect and 100 is complete control) (barnyardgrass; 250 g ai/ha): 85 | Waterhemp plant response rating (0 to 100) (waterhemp; 31 g ai/ha): 100 | Waterhemp plant response rating (0 to 100) (waterhemp; 62 g ai/ha): 100 | Plant response rating (scale of 0 to 100 where 0 is no effect and 100 is complete control) (waterhemp; Waterhemp, preemergence, 250 g ai/ha): 100 | pest or weed control at 31 g/ha (pigweed [1]; 31 g ai/ha): 100% | pest or weed control at 125 g/ha (pigweed [1]; 125 g ai/ha): 100% | pest or weed control at 31 g/ha (foxtail, giant [2]; 31 g ai/ha): 100% | pest or weed control at 125 g/ha (foxtail, giant [2]; 125 g ai/ha): 100% | Plant response rating (scale of 0 to 100 where 0 is no effect and 100 is complete control) (johnsongrass; 31 g ai/ha): 75 | Plant response rating (scale of 0 to 100 where 0 is no effect and 100 is complete control) (johnsongrass; 62 g ai/ha): 85 | Plant response rating (scale of 0 to 100 where 0 is no effect and 100 is complete control) (johnsongrass; 125 g ai/ha): 95 | Plant response rating (scale of 0 to 100 where 0 is no effect and 100 is complete control) (johnsongrass; 250 g ai/ha): 100 | Plant response rating (scale of 0 to 100 where 0 is no effect and 100 is complete control) (crabgrass, large; 31 g ai/ha): 35 | Plant response rating (scale of 0 to 100 where 0 is no effect and 100 is complete control) (crabgrass, large; 62 g ai/ha): 60 | Plant response rating (scale of 0 to 100 where 0 is no effect and 100 is complete control) (crabgrass, large; 125 g ai/ha): 70 | Plant response rating (scale of 0 to 100 where 0 is no effect and 100 is complete control) (crabgrass, large; 250 g ai/ha): 80 | pest or weed control at 31 g/ha (foxtail, giant [3]; 31 g ai/ha): 80% | pest or weed control at 125 g/ha (foxtail, giant [3]; 125 g ai/ha): 90% | pest or weed control at 31 g/ha (pigweed [4]; 31 g ai/ha): 100% | pest or weed control at 125 g/ha (pigweed [4]; 125 g ai/ha): 100% | Plant response rating (scale of 0 to 100 where 0 is no effect and 100 is complete control) (velvetleaf; 31 g ai/ha): 65 | Plant response rating (scale of 0 to 100 where 0 is no effect and 100 is complete control) (velvetleaf; 62 g ai/ha): 75 | Plant response rating (scale of 0 to 100 where 0 is no effect and 100 is complete control) (velvetleaf; 125 g ai/ha): 80 | Plant response rating (scale of 0 to 100 where 0 is no effect and 100 is complete control) (velvetleaf; 250 g ai/ha): 85 | Plant response rating (scale of 0 to 100 where 0 is no effect and 100 is complete control) (ragweed; 31 g ai/ha): 65 | Plant response rating (scale of 0 to 100 where 0 is no effect and 100 is complete control) (ragweed; 62 g ai/ha): 75 | Plant response rating (scale of 0 to 100 where 0 is no effect and 100 is complete control) (ragweed; 125 g ai/ha): 80 | Plant response rating (scale of 0 to 100 where 0 is no effect and 100 is complete control) (ragweed; 250 g ai/ha): 85
